Test results from patent publication US4166864A, “Pesticidal unsymmetrical bis-arylcarbamate disulfide compounds” (Union Carbide Corporation, priority 1977, dated 1979).

Tests used:
Assay type in all cases: in vivo
[1] = system: two-spotted mite (Tetranychus urticae Koch); assay: Mite Foliage Spray Test; set-up: key: A: excellent control; B: partial control; C: no control; details: 500 ppm foliage spray, six days
Method: (§1) Suspensions of the test compounds were prepared by dissolving one gram of compound in 50 milliliters of acetone in which had been dissolved 0.1 gram (10 percent of the weight of compound) of an alkylphenoxy polyethoxyethanol surfactant, as an emulsifying or dispersing agent. The resulting solution was mixed into 150 milliliters of water to give roughly 200 milliliters of a suspension containing the compound in finely divided form. The thus-prepared stock suspension contained 0.5 percent by weight of compound. The test concentrations in parts per million by weight employed in the tests described hereinbelow were obtained by appropriate dilutions of the stock suspension with water. The test procedures were as follows:
Adults and nymphal stages of the two-spotted mite (Tetranychus urticae Koch), reared on Tendergreen bean plants at 80±5 percent relative humidity, were the test organisms. Infested leaves from a stock culture were placed on the primary leaves of two bean plants six to eight inches in height, growing in a two-and-a-half inch clay pot. 150-200 Mites, a sufficient number for testing, transferred from the excised leaves to the fresh plants in a period of twenty four hours. Following the twenty four hour transfer period, the excised leaves were removed from the infested plants. The test compounds were formulated by diluting the stock suspension with water to give a suspension containing 500 parts of test compound per million parts of final formulation. The potted plants (one pot per compound) were placed on a revolving turntable and sprayed with 100-110 milliliters of test compound formulation by use of a DeVilbiss spray gun set at 40 psig. air pressure. This application, which lasted 25 seconds, was sufficient to wet the plants to run-off. As a control, 100=110 milliliters of a water solution containing acetone and emulsifier in the same concentrations as the test compound formulation, but containing no test compound, were also sprayed on infested plants. The sprayed plants were held at 80±5 percent relative humidity for six days, after which a mortality count of motile forms was made. Microscopic examination for motile forms was made on the leaves of the test plants. Any individual which was capable of locomotion upon prodding was considered living. […]
(§2) In these tests the pesticidal activity of the compounds against aphid, mite, Southerm Armyworm, Bean Beetle and house fly was rated as follows: […]

Bean = assay: Phytotoxicity Test, bean; set-up: key: 1: no perceptible injury; 2: intermediate degrees of injury based upon the number and extent to which leaves were injured; 3: intermediate degrees of injury based upon the number and extent to which leaves were injured; 4: intermediate degrees of injury based upon the number and extent to which leaves were injured; 5: the plant was dead; details: 2500 ppm spray, rated after ten days
Method: (§3) Experiments were also conducted to determine the phytoxicity of representative compounds with respect to healthy fresh plants. Solutions of the compounds were prepared as described above to provide a concentration of 2500 parts per million of the test compound. The test plants were sprayed in accordance with the procedure described above for the Mite Foliage Spray Test so as to deliver approximately 100 milliliters of test solution to the leaves of each plant tested. The sprayed plants and controls were set aside for approximately one hour to allow the foliage to dry and were then placed in the greenhouse. After ten days the plants were visually inspected to determine the extent of foliage injury. A rating of 1 indicates no perceptible injury; 5 indicates the plant was dead and ratings of 2, 3 and 4 indicate intermediate degrees of injury based upon the number and extent to which leaves were injured.

Cotton = assay: Phytotoxicity Test, cotton; set-up: key: 1: no perceptible injury; 2: intermediate degrees of injury based upon the number and extent to which leaves were injured; 3: intermediate degrees of injury based upon the number and extent to which leaves were injured; 4: intermediate degrees of injury based upon the number and extent to which leaves were injured; 5: the plant was dead; details: 2500 ppm spray, rated after ten days
Method: as §3

[2] = system: house flies (Musca domestica, L.); assay: Fly Bait Test; set-up: key: A: excellent control; B: partial control; C: no control; details: 500 ppm in sugar-solution bait, twenty four hours
Method: as §1
Four to six day old adult house flies (Musca domestica, L.) reared according to the specifications of the Chemical Specialties Manufacturing Association (Blue Book, McNair-Dorland Co., N.Y. 1954; pages 243-244, 261) under controlled conditions of 80°±5° F. and 50±5 percent relative humidity, were the test insects. The flies were immobilized by anesthetizing with carbon dioxide and twenty five immobilized individuals, males and females, were transferred to a cage consisting of a standard food strainer about five inches in diameter which was inverted over a wrapping-paper-covered surface. The test compounds were formulated by diluting the stock suspension with a 10 percent (by weight) sugar solution to give a suspension containing 500 parts of test compound per million parts of final formulation, by weight. Ten milliliters of the test formulation were added to a souffle cup containing a one-inch square of an absorbent cotton pad. This bait cup was introduced and centered on the blotting paper under the food strainer prior to admitting the anesthetized flies. The caged flies were allowed to feed on the bait for twenty four hours, at a temperature of 80°±5° F. and the relative humidity of 50±5 percent.
as §2

[3] = system: bean aphid (Aphis fabae Scop.); assay: Bean Aphid Foliage Spray Test; set-up: key: A: excellent control; B: partial control; C: no control; details: 500 ppm foliage spray, 24 hour holding period
Method: as §1
Adults and nymphal stages of the bean aphid (Aphis fabae Scop.) reared on potted dwarf nasturtium plants at […] and 50-70 percent relative humidity, constituted the test insects. For testing purposes, the number of aphids per pot was standardized to 100-150 by trimming plants containing excess aphids.
The test compounds were formulated by diluting the stock suspension with water to give a suspension containing 500 parts of test compound per million parts of final formulation.
The potted plants (one pot per compound tested) infested with 100-150 aphids, were placed on a revolving turntable and sprayed with 100-110 milliliters of test compound formulation by use of a DeVilbiss spray gun set at 40 psig. air pressure. This application, which lasted 25 seconds, was sufficient to wet the plants to run-off. As a control, 100-110 milliliters of a water-acetone-emulsifier solution containing no test compound were also sprayed on infested plants. After spraying, the pots were placed on their sides on a sheet of white standard mimeograph paper which had been previously ruled to facilitate counting. Temperature and humidity in the test room during the 24 hour holding period were 65°-70° F. and 50-70 percent, respectively. Aphids which fell onto the paper and were unable to remain standing after being uprighted were considered dead. Aphids remaining on the plants were observed closely for movement and those which were unable to move the length of the body upon stimulation by prodding were considered dead. Percent mortality was recorded for various concentration levels.
as §2

Corn = assay: Phytotoxicity Test, corn; set-up: key: 1: no perceptible injury; 2: intermediate degrees of injury based upon the number and extent to which leaves were injured; 3: intermediate degrees of injury based upon the number and extent to which leaves were injured; 4: intermediate degrees of injury based upon the number and extent to which leaves were injured; 5: the plant was dead; details: 2500 ppm spray, rated after ten days
Method: as §3

| SMILES | Miticidal activity rating, Mite [1] | Phytotoxicity, Bean (Bean) | Phytotoxicity, Cotton (Cotton) | Insecticidal activity rating, Housefly [2] | Insecticidal activity rating, Aphid [3] | Phytotoxicity, Corn (Corn) |
| --- | --- | --- | --- | --- | --- | --- |
| C#CCOc1ccccc1OC(=O)N(C)SSN(C)C(=O)Oc1cccc2c1OC(C)(C)C2 | C | 1 | 1 | A | A | 1 |
| CN(SSN(C)C(=O)Oc1cccc2ccccc12)C(=O)Oc1cccc2c1OC(C)(C)C2 | C | 1 | 1 | A | A | 1 |
| CSc1ccc(OC(=O)N(C)SSN(C)C(=O)Oc2cccc3c2OC(C)(C)C3)cc1C | C | 1 | 1 | A | A | 1 |
| Cc1cc(C)cc(OC(=O)N(C)SSN(C)C(=O)Oc2cccc3c2OC(C)(C)C3)c1 | C | 1 | 1 | A | A | 1 |
| CN(SSN(C)C(=O)Oc1cccc2c1OC(C)(C)C2)C(=O)Oc1cccc(N(C)C)c1 | C | 1 | 1 | A | A | 1 |
| CN(SSN(C)C(=O)Oc1cccc2c1OC(C)(C)C2)C(=O)Oc1ccc2c(c1)OCO2 | C | 1 | 1 | A | A | 1 |
| CN(SSN(C)C(=O)Oc1ccccc1C1SCCS1)C(=O)Oc1ccc(C(C)(C)C)cc1 | C | 1 | 1 | A | A | 1 |
